# Data reported in patent US6664241B2, “Water-soluble amide derivatives of polyene macrolides and preparation and uses thereof” (Micrologix Biotech Inc., priority 2000, dated 2003).
# Read-outs that look alike come from different tables or passages of the source.
# Key:
# [1] = dogs; cited from earlier work
# [2] = Ascending single-dose nephrotoxicity study in rabbits; assay type: in vivo, Female New Zealand white rabbits; conditions: ascending single intravenous infusion doses, urine volume, BUN, creatinine
# Procedure: (§1) A variety of the compounds synthesized as described in Section 5, supra, were tested in various in vivo assays, as described below. The results of the various assays are provided in TABLE 3, presented at the end of this section. In all of the in vivo assays described, the test compounds, in the form of the aspartate salts, were formulated in an aqueous vehicle (5% mannitol in sterile water; OSMITROL, Baxter Healthcare, Deerfield, Ill.), followed by appropriate dilutions. The formulations were prepared fresh before dosing.
# AmB and AME were also tested for comparison. For AmB, the commercially available FUNGIZONE (Bristol-Meyers Squibb Co.) was used. […]
# Various polyene macrolide amide derivatives of the invention were evaluated to determine the intravenous dose of administered compound that produces nephrotoxicity in rabbits. Nephrotoxicity was monitored by measuring urine volume and blood urine nitrogen (BUN) and creatinine. […]
# Ascending single doses were administered by intravenous infusion into an ear vein at a rate of 0.6 mL/min. […] Body weights were recorded before each dose, as well as 2 days after the last dose. Blood samples were collected from the rabbits two days prior to the first dose (study day −2) and approximately 24 hr after each dose and analyzed for BUN and creatinine. […]
# [3] = human, in vivo; cited from earlier work
# C. albicans [4] = test: 7 day kidney bioburden evaluation in neutropenic mice challenged with C. albicans; assay type: in vivo, Swiss-Webster mice; conditions: intraperitoneally once daily for 7 days, 50% of animals with 2 log10 reduction in kidney CFU; for ED50: Candida albicans, ip, 168 h
# Procedure: as §1
# (§2) AmB and AME were also tested for comparison. For AmB, the commercially available FUNGIZONE (Bristol-Meyers Squibb Co.) was used. Reported values are based upon the weight of the AmB active ingredient, not on the basis of the weight of the FUNGIZONE powder. AME was formulated in OSMITROL as described for the test compounds.
# Various polyene macrolide amide derivatives of the invention were evaluated for their protective effect when administered intraperitoneally once daily for 7 days to neutropenic mice challenged with live C. albicans.
# Swiss-Webster mice (Simonsen Laboratories, Gilroy, Calif.) were made neutropenic by intravenous administration of 5-fluorouracil (150 mg/kg) on study day −1. On study day 0, all mice received by intravenous injection a single inoculum (0.2 mL) containing as estimated 5.0×10^4 CFU of C. albicans. The day of inoculation was designated as study day 0. Beginning the day after infection (on study day 1), mice were treated intraperitoneally with vehicle alone or formulated test compound, once daily for 7 consecutive days.
# (§3) The mice were observed daily from study day 1 through study day 8 (1 day after the last dose). Mice found dead or euthanized in extremis were removed from the study without further processing. Surviving mice were euthanized by inhalation of CO2 on study day 8 and both kidneys from each mouse were removed. Each pair of removed kidneys was homogenized in 3 mL of ice-cold PBS containing 10% glycerol. A portion of each homogenate was used to determine log10 CFU per kidney using SDA plates (48 hours of incubation at 30° C.). Kidney log10 CFU data were analyzed using a t-test. The criterion for a statistically significant response was set at p<0.01.
# (§4) For comparison, the results for AmB and AME are also provided. Efficacy was defined for individual animals as a greater than 2 log10 reduction in kidney CFU relative to the mean vehicle control value.
# [5] = Two week range-finding toxicity study in mice; assay type: in vivo, CD-1 mice; conditions: for NOAEL at 2 week: both sexes, CD-1, mouse, in vivo, iv
# Procedure: as §1, §2
# Various polyene macrolide amide derivatives of the invention were evaluated to characterize their potential toxicity when administered subchronically by intravenous injection.
# CD-1® mice (Charles River Laboratories, Portage, Mich.) were acclimated to laboratory conditions for at least 5 days before the start of dosing. During the acclimation period, the general condition of the mice was evaluated, and those considered healthy were used. The mice were randomly assigned to treatment groups using a stratified body weight regimen. Each treatment group consisted of 3 male and 3 female mice. The mice were housed in a room with a controlled environment and provided rodent chow and water ad libitum.
# On the first day of dosing, the mice were approximately 7 to 9 weeks old and weighed 22 to 30 g. Doses were administered by intravenous injection once daily on study days 1 to 5 and 8 to 12. Dosages were selected based upon data from efficacy and toxicology studies, and ranged from 1.25 to 30 mg/kg/day. Clinical observations were recorded 0.5 hr after dosing on days 1, 3, 5, 8, 10, 12 and 15, and on any day a change was observed. Body weights were recorded prior to dosing and on study days 8 and 12, and on study day 15 at the completion of the in-life phase of the study.
# Animals that were found in a moribund/deteriorating clinical state were euthanized (animal designated killed in extremis) by inhalation of CO2. The day of death for any animal found dead or killed in extremis was recorded. Any animal that died prematurely was removed from the study without further processing.
# One day after completion of dosing (study day 16), all surviving mice were euthanized by inhalation of CO2. Their kidneys were preserved for histopathologic examination. The maximum no-observed-adverse-effect level (NOAEL) was determined on the basis of clinical and histopathologic findings. The values for AmB and AME are provided for comparison.
# C. albicans [6] = test: Minimum Inhibitory Concentrations (MICs) against C. albicans, NCCLS M27-A broth dilution; assay type: cell-based
# Procedure: For each compound synthesized, Minimum Inhibitory Concentrations (MICs) against C. albicans were determined as described in Reference Method for Broth Dilution Antifungal Susceptibility Testing of Yeasts, Approved Standard, NCCLS document M27-A (ISBN 1-56238-328-0), NCCLS, 940 West Valley Road, Suite 1400, Wayne, Pa. 19087, 1997.
# C. albicans [7] = test: 5 day kidney bioburden evaluation in immunocompetent mice challenged with C. albicans; assay type: in vivo, Swiss-Webster mice; conditions: intraperitoneally once daily for 5 days, immunocompetent mice, C. albicans, 50% of animals with 2 log10 reduction in kidney CFU; for ED50: Candida albicans, ip, 120 h, read-out: ED50 mice 5 day
# Procedure: as §1, §2
# Various polyene macrolide amide derivatives of the invention were evaluated for their protective effect when administered intraperitoneally once daily for 5 days to immunocompetent mice challenged with live C. albicans.
# C. albicans was grown on Sabouraud dextrose agar (SDA) plates for 48 hr. Colonies were harvested and washed twice by centrifugation in phosphate-buffered saline (PBS). The washed pellets were resuspended in PBS and diluted to achieve the desired number of fungi per milliliter. A portion of the inoculum was plated on SDA plates to determine the colony-forming units (CFU) per milliliter.
# Swiss-Webster mice (Simonsen Laboratories, Gilroy, Calif.) were administered by intravenous injection a single inoculum (0.2 mL) containing as estimated 2.0×10^5 CFU of C. albicans. The day of inoculation was designated as study day 0. Beginning three days after injection, mice were treated intraperitoneally with vehicle alone or formulated test compound once daily for 5 consecutive days.
# as §3, with “day 0” for “day 1”, “day 10 (3 days” for “day 8 (1 day”, “day 10” for “day 8”
# as §4
# [8] = Maximum non-lethal dose (NLD), single intravenous dose in mice; assay type: in vivo, Swiss-Webster male mice; conditions: test compounds as aspartate salts in 5% mannitol, AmB as FUNGIZONE
# Procedure: as §1, §2
# Maximum non-lethal dose (NLD) data were obtained for selected compounds. A single intravenous dose was administered to each of four mice (Swiss-Webster male mice; Simonsen Laboratories, Gilroy, Calif.) in several groups. The doses selected were based upon the NLDs of compounds of similar structures. After review of findings, higher or lower doses were administered and a NLD was determined. The results are tabulated in TABLE 3, below (NLD Acute Mice). The values for AmB and AME are provided for comparison
# [9] = rats; cited from earlier work
# [10] = Candida albicans, read-out: MIC
Compound,"acute, nephro- and hepato-toxicity versus amphotericin B [1]",NOAEL acute rabbit [2] [mg/kg],adverse effects in clinical trial [3],ED50 mice 7 day (C. albicans [4]) [mg/kg],"NOAEL 2 week mice clinical ([5]; intravenous once daily on days 1 to 5 and 8 to 12, clinical findings) [mg/kg]","NOAEL 2 week mice histological ([5]; intravenous once daily on days 1 to 5 and 8 to 12, histopathologic (kidney) findings) [mg/kg]",MIC (C. albicans [6]) [µg/mL],ED50 mice 5 day (C. albicans [7]) [mg/kg],NLD acute mice [8] [mg/kg],"acute, nephro- and hepato-toxicity versus amphotericin B [9]",ED50 (C. albicans [4]) [mg/kg],NOAEL at 2 week ([5]; NOAEL 2 week mice clinical) [mg/kg],NOAEL at 2 week ([5]; NOAEL 2 week mice histological) [mg/kg],MIC (C. albicans [6]; [10]) [µg/mL],ED50 (C. albicans [7]) [mg/kg]
"COC(=O)[C@H]1[C@@H]2C[C@@H](O[C@@H]3O[C@H](C)[C@@H](O)[C@H](N)[C@@H]3O)/C=C/C=C/C=C/C=C/C=C/C=C/C=C/[C@H](C)[C@@H](O)[C@@H](C)[C@H](C)OC(=O)C[C@H](O)C[C@H](O)CC[C@@H](O)[C@H](O)C[C@H](O)C[C@](O)(C[C@@H]1O)O2 [AME, amphotericin B methyl ester, reference compound]","lower acute, nephro- and hepato-toxicity than amphotericin B",7.5,many patients developed progressive neurological dysfunction associated with white matter degeneration,8.3,>32,>32,0.75,13.1,60,"lower acute, nephro- and hepato-toxicity than amphotericin B",–,–,–,–,–
CC1[C@H](C)OC(=O)C[C@H](O)C[C@H](O)CC[C@@H](O)[C@H](O)C[C@H](O)C[C@]2(O)C[C@H](O)C(C(=O)NCCN3CCCCC3)C(C[C@@H](OC3O[C@H](C)[C@@H](O)[C@H](NC[C@@]4(O)OC[C@@H](O)[C@H](O)[C@@H]4O)[C@@H]3O)/C=C/C=C/C=C/C=C/C=C/C=C/C=C/[C@H](C)[C@H]1O)O2 (stereo partly shown) [Compound 114],–,–,–,–,–,–,–,–,40,–,6.1,9,9,4,9
CC1[C@H](C)OC(=O)C[C@H](O)C[C@H](O)CC[C@@H](O)[C@H](O)C[C@H](O)C[C@]2(O)C[C@H](O)C(C(=O)NCCCN3CCOCC3)C(C[C@@H](OC3O[C@H](C)[C@@H](O)[C@H](NC[C@@]4(O)OC[C@@H](O)[C@@H](O)[C@@H]4O)[C@@H]3O)/C=C/C=C/C=C/C=C/C=C/C=C/C=C/[C@H](C)[C@H]1O)O2 (stereo partly shown) [Compound 104],–,–,–,–,–,–,–,–,20,–,3.1,10,< 10,2,9
